Our source for the IC50 values is patent US20240166635A1, “AMINOHETEROARYL KINASE INHIBITORS” (Anrui Biomedical Technology (Guangzhou) Co.,Ltd., priority 2020, published 2024).

Where only a bound is given, the exact number is not on record here.

Common to all, as to type: biochemical
The target of one test is CDK4/Cyclin D1 (Homo sapiens (Human), UniProt P11802). The test is described as follows: CDK4/CyclinD1 kinase inhibitory activity (Caliper mobility shift).
For a further test, the target named is CDK7/CyclinH/MAT1 (Homo sapiens (Human), UniProt P50613). The test is described as follows: CDK7/CyclinH/MAT1 kinase inhibitory activity (Caliper mobility shift).
Sequence of CDK7/CyclinH/MAT1 (P50613 whole entry): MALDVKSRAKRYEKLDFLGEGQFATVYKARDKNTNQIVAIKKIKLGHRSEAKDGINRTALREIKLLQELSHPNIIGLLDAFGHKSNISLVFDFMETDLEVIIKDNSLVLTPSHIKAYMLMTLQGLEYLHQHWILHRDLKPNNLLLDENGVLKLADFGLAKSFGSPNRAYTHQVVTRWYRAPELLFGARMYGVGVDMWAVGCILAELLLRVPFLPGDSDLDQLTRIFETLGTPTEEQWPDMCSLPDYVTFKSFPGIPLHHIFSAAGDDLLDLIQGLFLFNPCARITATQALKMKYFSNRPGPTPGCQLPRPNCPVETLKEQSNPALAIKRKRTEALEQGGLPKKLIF
Sequence of CDK7/CyclinH/MAT1 (P51946 whole entry partner): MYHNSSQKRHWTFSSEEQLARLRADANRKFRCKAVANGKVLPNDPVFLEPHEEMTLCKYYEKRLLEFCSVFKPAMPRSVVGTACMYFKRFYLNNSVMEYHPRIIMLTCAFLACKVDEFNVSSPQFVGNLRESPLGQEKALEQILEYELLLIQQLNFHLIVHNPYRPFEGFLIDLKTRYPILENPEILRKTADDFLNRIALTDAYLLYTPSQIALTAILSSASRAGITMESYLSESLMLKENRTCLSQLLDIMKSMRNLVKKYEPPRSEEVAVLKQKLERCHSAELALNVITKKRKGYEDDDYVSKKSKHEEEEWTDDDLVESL
Sequence of CDK7/CyclinH/MAT1 (P51948 whole entry partner): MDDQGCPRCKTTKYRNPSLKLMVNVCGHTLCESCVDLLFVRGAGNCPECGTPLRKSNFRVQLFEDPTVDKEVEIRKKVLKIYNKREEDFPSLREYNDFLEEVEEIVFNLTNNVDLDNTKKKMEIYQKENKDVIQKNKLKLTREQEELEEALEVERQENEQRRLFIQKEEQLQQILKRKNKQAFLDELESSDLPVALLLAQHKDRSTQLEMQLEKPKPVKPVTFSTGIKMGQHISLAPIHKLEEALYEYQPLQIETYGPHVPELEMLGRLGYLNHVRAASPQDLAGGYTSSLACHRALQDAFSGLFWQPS
In the next test the target is CDK2/CyclinE1 (Homo sapiens (Human), UniProt P24941). Kind of test: CDK2/CyclinE1 kinase inhibitory activity (Caliper mobility shift). Particulars: read-out: CDK2/Cyclin El IC50.
In a further test the target is CDK6/CyclinD1 (Homo sapiens (Human), UniProt Q00534). Kind of test: CDK6/CyclinD1 kinase inhibitory activity (Caliper mobility shift). The note with it: read-out: CDK6/Cyclin D1 IC50.
Sequence of CDK6/CyclinD1 (Q00534 whole entry): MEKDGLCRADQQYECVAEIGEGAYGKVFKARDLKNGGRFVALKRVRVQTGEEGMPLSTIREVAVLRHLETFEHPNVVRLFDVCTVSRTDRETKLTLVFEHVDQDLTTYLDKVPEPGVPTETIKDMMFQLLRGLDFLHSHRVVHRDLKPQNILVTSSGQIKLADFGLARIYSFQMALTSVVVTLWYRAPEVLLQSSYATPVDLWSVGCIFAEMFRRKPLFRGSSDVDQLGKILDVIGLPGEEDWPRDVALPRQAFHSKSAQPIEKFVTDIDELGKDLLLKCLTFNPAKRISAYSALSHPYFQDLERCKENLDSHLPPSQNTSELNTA
Sequence of CDK6/CyclinD1 (P24385 whole entry partner): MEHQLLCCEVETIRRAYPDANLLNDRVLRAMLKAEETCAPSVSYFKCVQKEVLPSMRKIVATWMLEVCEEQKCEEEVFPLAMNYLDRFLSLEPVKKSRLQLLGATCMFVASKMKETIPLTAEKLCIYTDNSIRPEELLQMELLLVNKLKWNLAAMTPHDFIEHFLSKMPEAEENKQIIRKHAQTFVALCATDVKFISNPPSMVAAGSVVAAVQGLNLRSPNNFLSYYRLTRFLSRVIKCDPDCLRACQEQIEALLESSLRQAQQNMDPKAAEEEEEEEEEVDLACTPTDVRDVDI
A further test deals with CDK9/CyclinT1 (Homo sapiens (Human), UniProt P50750). The test is described as follows: CDK9/CyclinT1 kinase inhibitory activity (Caliper mobility shift). Particulars: read-out: CDK9/Cyclin T1 IC50.
Sequence of CDK9/CyclinT1 (P50750 whole entry): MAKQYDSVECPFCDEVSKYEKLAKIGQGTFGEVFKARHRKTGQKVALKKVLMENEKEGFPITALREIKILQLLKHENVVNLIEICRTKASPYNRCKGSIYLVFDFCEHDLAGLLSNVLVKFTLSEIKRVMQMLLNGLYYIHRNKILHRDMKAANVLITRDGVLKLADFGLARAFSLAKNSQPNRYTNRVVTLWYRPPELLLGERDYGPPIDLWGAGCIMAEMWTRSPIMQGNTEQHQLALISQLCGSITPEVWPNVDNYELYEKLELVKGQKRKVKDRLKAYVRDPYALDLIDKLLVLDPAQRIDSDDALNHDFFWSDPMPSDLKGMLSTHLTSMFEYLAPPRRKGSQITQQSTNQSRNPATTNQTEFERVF
Sequence of CDK9/CyclinT1 (O60563 whole entry partner): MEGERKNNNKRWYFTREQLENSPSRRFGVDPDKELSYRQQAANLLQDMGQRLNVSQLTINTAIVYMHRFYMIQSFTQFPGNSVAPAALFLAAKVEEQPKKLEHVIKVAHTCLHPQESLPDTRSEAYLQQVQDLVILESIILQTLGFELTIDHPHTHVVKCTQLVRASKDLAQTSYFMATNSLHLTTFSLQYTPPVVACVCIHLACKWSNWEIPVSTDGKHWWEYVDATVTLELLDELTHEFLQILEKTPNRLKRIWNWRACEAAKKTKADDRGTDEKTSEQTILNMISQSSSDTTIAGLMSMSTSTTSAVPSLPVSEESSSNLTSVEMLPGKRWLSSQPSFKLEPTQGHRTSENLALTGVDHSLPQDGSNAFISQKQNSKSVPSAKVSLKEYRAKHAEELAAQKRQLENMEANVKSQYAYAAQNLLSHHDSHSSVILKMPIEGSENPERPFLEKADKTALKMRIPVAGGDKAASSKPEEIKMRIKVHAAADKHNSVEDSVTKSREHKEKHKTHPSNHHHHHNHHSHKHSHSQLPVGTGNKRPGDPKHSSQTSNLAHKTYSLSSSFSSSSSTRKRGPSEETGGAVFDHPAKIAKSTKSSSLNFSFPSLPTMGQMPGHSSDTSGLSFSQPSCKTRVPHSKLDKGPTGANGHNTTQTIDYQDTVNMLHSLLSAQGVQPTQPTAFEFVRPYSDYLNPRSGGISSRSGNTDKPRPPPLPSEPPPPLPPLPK
The target of a further test is CDK1/CyclinB (Homo sapiens (Human), UniProt P06493). Kind of test: CDK1/CyclinB kinase inhibitory activity (Caliper mobility shift). The note with it: read-out: CDK1/Cyclin B1 IC50.
Sequence of CDK1/CyclinB (P06493 whole entry): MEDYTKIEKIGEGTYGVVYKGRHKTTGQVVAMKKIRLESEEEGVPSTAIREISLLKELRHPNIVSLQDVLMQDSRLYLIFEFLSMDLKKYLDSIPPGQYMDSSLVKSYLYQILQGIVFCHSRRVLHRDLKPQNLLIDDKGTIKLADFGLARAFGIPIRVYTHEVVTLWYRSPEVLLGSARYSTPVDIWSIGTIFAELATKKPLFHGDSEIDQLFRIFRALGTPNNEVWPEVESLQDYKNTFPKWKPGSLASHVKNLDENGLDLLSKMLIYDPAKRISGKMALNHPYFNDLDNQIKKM
Sequence of CDK1/CyclinB (P14635 whole entry partner): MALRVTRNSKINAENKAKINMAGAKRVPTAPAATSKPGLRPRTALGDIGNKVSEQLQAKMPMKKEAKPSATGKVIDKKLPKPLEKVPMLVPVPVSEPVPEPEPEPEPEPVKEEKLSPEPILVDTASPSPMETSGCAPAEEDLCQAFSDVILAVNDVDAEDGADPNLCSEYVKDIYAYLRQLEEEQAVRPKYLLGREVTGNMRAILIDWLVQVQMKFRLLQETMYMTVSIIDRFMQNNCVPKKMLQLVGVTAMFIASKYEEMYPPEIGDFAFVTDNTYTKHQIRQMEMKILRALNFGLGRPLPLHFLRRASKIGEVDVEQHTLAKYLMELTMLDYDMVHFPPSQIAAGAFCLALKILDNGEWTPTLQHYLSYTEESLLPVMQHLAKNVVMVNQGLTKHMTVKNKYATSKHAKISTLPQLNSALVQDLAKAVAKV

Sequence of CDK4/Cyclin D1 (P11802 whole entry): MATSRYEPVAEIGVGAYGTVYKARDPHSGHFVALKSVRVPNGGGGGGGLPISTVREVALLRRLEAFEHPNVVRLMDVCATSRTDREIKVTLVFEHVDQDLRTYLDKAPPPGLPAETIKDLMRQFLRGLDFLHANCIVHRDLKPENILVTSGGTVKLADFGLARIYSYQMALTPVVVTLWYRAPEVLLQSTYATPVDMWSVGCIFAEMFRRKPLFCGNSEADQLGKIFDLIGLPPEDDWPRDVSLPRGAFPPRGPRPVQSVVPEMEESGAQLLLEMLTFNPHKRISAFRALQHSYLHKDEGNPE
Sequence of CDK4/Cyclin D1 (P24385 whole entry partner): as the sequence (P24385 whole entry partner) above

In the case of `Cn1cc(S(=O)(=O)N2CCC(Nc3ncc(C(F)(F)F)c(OC4CCOCC4(C)O)n3)CC2)cn1` (single isomer, unassigned) [Example 125b], the IC50 at CDK4/Cyclin D1 was in the range of 100 to 1000 nM; at CDK7/CyclinH/MAT1 it was 100 to 1000 nM; at CDK2/CyclinE1 it was 10 to 100 nM; on CDK6/CyclinD1, 100 to 1000 nM.

Consider `CC1(O)COCCC1Oc1nc(NC2CCN(S(C)(=O)=O)CC2)ncc1C(F)(F)F` (single isomer, unassigned) [Example 124b], for which the IC50 at CDK4/Cyclin D1 is 100 to 1000 nM; at CDK9/CyclinT1, not below 1000 nM; on CDK1/CyclinB, not below 1000 nM; at CDK2/CyclinE1 it was 100 to 1000 nM; at CDK6/CyclinD1, 100 to 1000 nM.

Regarding `[2H]C([2H])([2H])NS(=O)(=O)c1ccc(Nc2ncc(C(F)(F)F)c(O[C@H]3CCCOC[C@H]3O)n2)cc1` (single isomer, unassigned) [Example 103b, cis-4-((4-((3-hydroxyoxepan-4-yl)oxy)-5-(trifluoromethyl)pyrimidin-2-yl)amino)-N-(methyl-d3)benzenesulfonamide], the IC50 on CDK4/Cyclin D1 was not below 1000 nM; at CDK7/CyclinH/MAT1, not below 1000 nM; on CDK1/CyclinB, 100 to 1000 nM.

With `C[C@]1(O)CCC[C@H]1Oc1nc(NC2CCN(S(C)(=O)=O)CC2)ncc1C#N` (relative stereo) [Example 5a, cis-4-((2-hydroxy-2-methylcyclopentyl-4,4-d2)oxy)-2-((1-(methylsulfonyl)piperidin-4-yl)amino)pyrimidine-5-carbonitrile], the IC50 is less than 10 nM at CDK4/Cyclin D1; 100 to 1000 nM at CDK9/CyclinT1; 10 to 100 nM on CDK1/CyclinB; less than 10 nM on CDK2/CyclinE1; 10 to 100 nM at CDK6/CyclinD1.

For `C[C@]1(O)CCC[C@H]1Oc1nc(NC2CCN(S(C)(=O)=O)CC2)ncc1C#N` (relative stereo) [Example 5b, cis-4-((2-hydroxy-2-methylcyclopentyl-4,4-d2)oxy)-2-((1-(methylsulfonyl)piperidin-4-yl)amino)pyrimidine-5-carbonitrile], the IC50 on CDK4/Cyclin D1 is 100 to 1000 nM; on CDK9/CyclinT1 it was not below 1000 nM; on CDK1/CyclinB, 100 to 1000 nM; on CDK2/CyclinE1, 10 to 100 nM; on CDK6/CyclinD1, 10 to 100 nM.

In the case of `C[C@]1(O)COC[C@H]1Oc1nc(NC2CCN(S(C)(=O)=O)CC2)ncc1C(F)(F)F` (relative stereo) [Example 104b, cis-3-methyl-4-((2-((1-(methylsulfonyl)piperidin-4-yl)amino)-5-(trifluoromethyl)pyrimidin-4-yl)oxy)tetrahydrofuran-3-ol], the IC50 at CDK4/Cyclin D1 is 100 to 1000 nM; on CDK9/CyclinT1 it was not below 1000 nM; at CDK1/CyclinB, 100 to 1000 nM; on CDK2/CyclinE1, 10 to 100 nM; at CDK6/CyclinD1 it was 100 to 1000 nM.

Consider `CO[C@H]1C[C@](C)(COc2nc(NC3CCN(S(=O)(=O)c4cnn(C)c4)CC3)ncc2C#N)C1` [Example 64a], for which the IC50 at CDK4/Cyclin D1 is 10 to 100 nM; on CDK7/CyclinH/MAT1 it was 100 to 1000 nM; at CDK2/CyclinE1, less than 10 nM; at CDK6/CyclinD1 it was 10 to 100 nM.

In the case of `Cn1cc(S(=O)(=O)N2CCC(Nc3ncc(C#N)c(OC4CCCC4(C)O)n3)CC2)cn1` (single isomer, unassigned) [Example 48b], the IC50 on CDK4/Cyclin D1 is 10 to 100 nM; at CDK9/CyclinT1 it was not below 1000 nM; on CDK1/CyclinB, 10 to 100 nM; on CDK2/CyclinE1, less than 10 nM; on CDK6/CyclinD1, 10 to 100 nM.

Regarding `Cn1cnc(S(=O)(=O)N2CCC(Nc3ncc(C#N)c(OC4CCCC4(C)O)n3)CC2)n1` (single isomer, unassigned) [Example 51a], the IC50 at CDK4/Cyclin D1 is 10 to 100 nM; on CDK7/CyclinH/MAT1, 100 to 1000 nM; at CDK2/CyclinE1, less than 10 nM; at CDK6/CyclinD1, 10 to 100 nM.

On to `CNS(=O)(=O)c1ccc(Nc2ncc(C(F)(F)F)c(OC3CCOCCC3O)n2)cc1` (single isomer, unassigned) [Example 102c, 4-((4-((5-hydroxyoxepan-4-yl)oxy)-5-(trifluoromethyl)pyrimidin-2-yl)amino)-N-(methyl-d3)benzenesulfonamide], for which the IC50 at CDK4/Cyclin D1 was not below 1000 nM; at CDK2/CyclinE1, less than 10 nM.

With `CNS(=O)(=O)c1ccc(Nc2ncc(C(F)(F)F)c(OC3CCOCCC3O)n2)cc1` (single isomer, unassigned) [Example 102b, 4-((4-((5-hydroxyoxepan-4-yl)oxy)-5-(trifluoromethyl)pyrimidin-2-yl)amino)-N-(methyl-d3)benzenesulfonamide], the IC50 is not below 1000 nM at CDK4/Cyclin D1 and less than 10 nM at CDK2/CyclinE1.

Turning to `CNS(=O)(=O)c1ccc(Nc2ncc(C(F)(F)F)c(OC3CCOCCC3O)n2)cc1` (single isomer, unassigned) [Example 102d, 4-((4-((5-hydroxyoxepan-4-yl)oxy)-5-(trifluoromethyl)pyrimidin-2-yl)amino)-N-(methyl-d3)benzenesulfonamide], the IC50 at CDK4/Cyclin D1 is not below 1000 nM; on CDK2/CyclinE1 it was less than 10 nM.

Take `Cn1cnc(S(=O)(=O)N2CCC(Nc3ncc(C#N)c(OC4CCCC4(C)O)n3)CC2)n1` (single isomer, unassigned) [Example 51b]: the IC50 on CDK4/Cyclin D1 is 100 to 1000 nM; on CDK7/CyclinH/MAT1, not below 1000 nM; at CDK2/CyclinE1 it was 10 to 100 nM; at CDK6/CyclinD1 it was 100 to 1000 nM.

In the case of `Cn1cnc(S(=O)(=O)N2CCC(Nc3ncc(C#N)c(OC4CCCC4(C)O)n3)CC2)c1` (single isomer, unassigned) [Example 50b], the IC50 on CDK4/Cyclin D1 is 10 to 100 nM; on CDK7/CyclinH/MAT1, not below 1000 nM; on CDK2/CyclinE1, less than 10 nM; at CDK6/CyclinD1, 10 to 100 nM.

With `CNS(=O)(=O)c1ccc(Nc2ncc(C(F)(F)F)c(O[C@H]3CCOC[C@H]3O)n2)c(F)c1` (single isomer, unassigned) [Example 101b, cis-3-fluoro-4-((4-((3-hydroxytetrahydro-2H-pyran-4-yl)oxy)-5-(trifluoromethyl)pyrimidin-2-yl)amino)-N-(methyl-d3)benzenesulfonamide], the IC50 at CDK4/Cyclin D1 and on CDK6/CyclinD1 was not below 1000 nM in each case.

Turning to `C[C@H]1CCCN(c2nc(Nc3ccc(S(N)(=O)=O)cc3)ncc2C#N)C1` [Example 71], the IC50 on CDK7/CyclinH/MAT1 is not below 1000 nM; at CDK9/CyclinT1, 10 to 100 nM; on CDK1/CyclinB, 10 to 100 nM; on CDK2/CyclinE1, less than 10 nM; on CDK6/CyclinD1, 100 to 1000 nM.

For the compound `C[C@]1(O)CC(F)(F)C[C@H]1Oc1nc(NC2CCN(S(C)(=O)=O)CC2)ncc1C#N` (relative stereo) [Example 4b, cis-4-((4,4-difluoro-2-hydroxy-2-methylcyclopentyl)oxy)-2-((1-(methylsulfonyl)piperidin-4-yl)amino)pyrimidine-5-carbonitrile], the IC50 is 100 to 1000 nM at CDK4/Cyclin D1; not below 1000 nM at CDK9/CyclinT1; 100 to 1000 nM at CDK1/CyclinB; 10 to 100 nM on CDK2/CyclinE1; 10 to 100 nM on CDK6/CyclinD1.

`CC1(O)CCCC1Oc1nc(NC2CCN(S(=O)(=O)C(F)(F)F)CC2)ncc1C#N` (single isomer, unassigned) [Example 42b]: the IC50 was 100 to 1000 nM on CDK4/Cyclin D1, not below 1000 nM at CDK7/CyclinH/MAT1, 10 to 100 nM at CDK2/CyclinE1 and 100 to 1000 nM at CDK6/CyclinD1.

Take `N#Cc1cnc(Nc2ccc(S(N)(=O)=O)cc2)nc1-c1ccc(O)cc1` [Example 92, 4-((5-cyano-4-(4-hydroxyphenyl)pyrimidin-2-yl)amino)benzenesulfonamide]: the IC50 at CDK7/CyclinH/MAT1 was not below 1000 nM; on CDK9/CyclinT1 it was 100 to 1000 nM; at CDK1/CyclinB, 10 to 100 nM; at CDK2/CyclinE1 it was less than 10 nM; on CDK6/CyclinD1 it was 100 to 1000 nM.

With `CC1(O)CCC(F)(F)CC1Oc1nc(NC2CCN(S(C)(=O)=O)CC2)ncc1C#N` (single isomer, unassigned) [Example 46a], the IC50 on CDK4/Cyclin D1, on CDK2/CyclinE1 and on CDK6/CyclinD1 was 100 to 1000 nM in each case.

For `CC1(O)CCCC1Oc1nc(NC2CCN(S(=O)(=O)C(F)(F)F)CC2)ncc1C#N` (single isomer, unassigned) [Example 42a], the IC50 is 10 to 100 nM on CDK4/Cyclin D1, 100 to 1000 nM at CDK7/CyclinH/MAT1, less than 10 nM at CDK2/CyclinE1 and 10 to 100 nM on CDK6/CyclinD1.

For the compound `CC1(O)COCCC1Oc1nc(NC2CCN(S(C)(=O)=O)CC2)ncc1C#N` (single isomer, unassigned) [Example 45b], the IC50 is 100 to 1000 nM on CDK4/Cyclin D1; not below 1000 nM at CDK9/CyclinT1; not below 1000 nM at CDK1/CyclinB; 100 to 1000 nM at CDK2/CyclinE1; 100 to 1000 nM on CDK6/CyclinD1.

As to `Cn1cc(S(=O)(=O)N2CCC(Nc3ncc(C#N)c(O[C@@H]4CCC(F)(F)C[C@]4(C)O)n3)CC2)cn1` (relative stereo) [Example 7b, cis-4-((4,4-difluoro-2-hydroxy-2-methylcyclohexyl)oxy)-2-((1-((1-methyl-1H-pyrazol-4-yl)sulfonyl)piperidin-4-yl)amino)pyrimidine-5-carbonitrile], the IC50 at CDK4/Cyclin D1 is 100 to 1000 nM; on CDK7/CyclinH/MAT1, not below 1000 nM; on CDK2/CyclinE1, 10 to 100 nM; at CDK6/CyclinD1 it was 100 to 1000 nM.

For the compound `NS(=O)(=O)c1ccc(Nc2ncc(F)c(N3CCCCC3)n2)cc1` [Example 86], the IC50 on CDK7/CyclinH/MAT1 is not below 1000 nM; on CDK9/CyclinT1, 10 to 100 nM; on CDK1/CyclinB, 10 to 100 nM; at CDK2/CyclinE1 it was 10 to 100 nM; at CDK6/CyclinD1 it was not below 1000 nM.

Regarding `CC1(O)CCCC1Oc1nc(NC2CCN(S(=O)(=O)CC(F)(F)F)CC2)ncc1C#N` (single isomer, unassigned) [Example 43b], the IC50 is 10 to 100 nM on CDK4/Cyclin D1, not below 1000 nM on CDK7/CyclinH/MAT1, 10 to 100 nM on CDK2/CyclinE1 and 10 to 100 nM at CDK6/CyclinD1.

Regarding `CC1(O)CC(F)(F)CC1Oc1nc(NC2CCN(S(=O)(=O)CC3CC3)CC2)ncc1C#N` (single isomer, unassigned) [Example 44a], the IC50 at CDK4/Cyclin D1 is 100 to 1000 nM; on CDK9/CyclinT1, not below 1000 nM; at CDK1/CyclinB, 100 to 1000 nM; on CDK2/CyclinE1 it was 10 to 100 nM; on CDK6/CyclinD1 it was 10 to 100 nM.
